In patent publication US11998539B2, “Substituted aminoquinolones as DGKalpha inhibitors for immune activation” (Bayer Aktiengesellschaft, priority 2019, dated 2024) one finds IC50 data, which are given here for 29 compounds.

In this assay the target is DGKα (Homo sapiens (Human), UniProt P23743). The assay is described as follows: Human DGKα kinase activity inhibition assay (ADP-Glo). In kind it is biochemical. The note with it: recombinant full-length human DGKα, 55 μM ATP, 7 μM 1,2-dioleoyl-sn-glycerol, read-out: IC50 values of examples in in vitro human DGKa kinase activity inhibition assays. The procedure: Human DGKα Kinase Activity Inhibition Assay
DGKα, sequence (P23743 other isoform, or with tags, fused parts or gaps): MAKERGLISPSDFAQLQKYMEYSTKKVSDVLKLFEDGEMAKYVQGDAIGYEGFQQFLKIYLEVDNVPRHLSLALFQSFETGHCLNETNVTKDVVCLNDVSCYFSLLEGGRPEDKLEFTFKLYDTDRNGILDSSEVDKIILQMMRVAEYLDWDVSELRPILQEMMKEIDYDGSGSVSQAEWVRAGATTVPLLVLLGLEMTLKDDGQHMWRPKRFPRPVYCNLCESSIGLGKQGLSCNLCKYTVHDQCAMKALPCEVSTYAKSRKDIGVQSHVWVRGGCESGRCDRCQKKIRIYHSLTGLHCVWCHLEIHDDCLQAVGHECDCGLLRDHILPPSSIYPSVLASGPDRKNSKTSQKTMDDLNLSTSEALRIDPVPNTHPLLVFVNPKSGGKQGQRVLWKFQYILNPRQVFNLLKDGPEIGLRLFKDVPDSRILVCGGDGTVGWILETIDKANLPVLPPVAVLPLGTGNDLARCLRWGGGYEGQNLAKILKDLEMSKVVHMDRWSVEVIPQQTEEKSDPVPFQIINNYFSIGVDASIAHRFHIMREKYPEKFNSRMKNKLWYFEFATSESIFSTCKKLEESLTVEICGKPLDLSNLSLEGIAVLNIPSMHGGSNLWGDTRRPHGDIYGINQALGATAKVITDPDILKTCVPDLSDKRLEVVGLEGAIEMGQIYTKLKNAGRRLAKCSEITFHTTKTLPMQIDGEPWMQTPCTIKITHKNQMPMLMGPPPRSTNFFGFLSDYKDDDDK
Human DGKα inhibitory activity of compounds of the present invention was quantified employing the human DGKα kinase activity assay as described in the following paragraphs. In essence, the enzyme activity was measured by quantification of the adenosine-di-phosphate (ADP) generated as a co-product of the enzyme reaction via the “ADP-Glo™ Kinase Assay” kit from the company Promega. This detection system works as follows: In a first step the ATP not consumed in the kinase reaction is quantitatively converted to cAMP employing an adenylate cyclase (“ADP-Glo-reagent”), then the adenylate cyclase is stopped and the ADP generated in the kinase reaction converted to ATP, which subsequently generates in a luciferase-based reaction a glow-luminescence signal (“Kinase Detection Reagent”).
C-terminally FLAG-tagged, recombinant full-length human DGKα (expressed in baculovirus infected insect cells, purified using anti-Flag pulldown and size exclusion chromatography as described below, DGKa_hu_1) was used as enzyme. As substrate for the kinase 1,2-dioleoyl-sn-glycerol, reconstituted in octyl-β-D-glucopyranoside micelles, was used. […] Then 35 volumes of 50 mM MOPS buffer (pH 7.4) were added to yield a solution of 0.28 mM 1,2 dioleoyl-sn-glycerol and 200 mM […], which was aliquoted, flash-frozen in liquid nitrogen, and stored at −20° C. until use.
For the assay 50 nl of a 100-fold concentrated solution of the test compound in dimethyl sulfoxide (DMSO, Sigma) was pipetted into either a white 1536-well or a white low-volume 384-well microtiter plate (both Greiner Bio-One, Frickenhausen, Germany).
As to `Cn1c(=O)c(C#N)c(N2CCC(c3nc4ccccc4o3)CC2)c2cccc(Br)c21` [Example 161, 4-[4-(1,3-benzoxazol-2-yl)piperidin-1-yl]-8-bromo-1-methyl-2-oxo-1,2-dihydroquinoline-3-carbonitrile], the IC50 was determined as 1100 nM.

On to `Cc1ccc2oc(C3(C)CCN(c4c(C#N)c(=O)n(C)c5ccc(C)cc45)CC3)nc2c1` [Example 187, 1,6-dimethyl-4-[4-methyl-4-(5-methyl-1,3-benzoxazol-2-yl)piperidin-1-yl]-2-oxo-1,2-dihydroquinoline-3-carbonitrile], for which the IC50 was 2 nM.

Consider `Cn1c(=O)c(C(N)=O)c(N2CCC(c3nc4ccccc4o3)CC2)c2ccc(Br)cc21` [Example 104, 4-[4-(1,3-benzoxazol-2-yl)piperidin-1-yl]-7-bromo-1-methyl-2-oxo-1,2-dihydroquinoline-3-carboxamide], for which the IC50 came out at 0.6 nM.

As for `Cn1c(=O)c(C#N)c(N2CCC(O)(c3ccc(Cl)cc3)CC2)c2ccccc21` [Example 151, 4-[4-(4-chlorophenyl)-4-hydroxypiperidin-1-yl]-1-methyl-2-oxo-1,2-dihydroquinoline-3-carbonitrile], the IC50 was found to be 486 nM.

With `Cc1cccc2oc(C3CCN(c4c(C#N)c(=O)n(C)c5ccccc45)CC3)nc12` [Example 17, 1-methyl-4-[4-(4-methyl-1,3-benzoxazol-2-yl)piperidin-1-yl]-2-oxo-1,2-dihydroquinoline-3-carbonitrile], the IC50 was 12 nM.

For the compound `Cc1nc2cc(C3CCN(c4c(C#N)c(=O)n(C)c5ccccc45)CC3)ccc2o1` [Example 345, 1-methyl-4-[4-(2-methyl-1,3-benzoxazol-5-yl)piperidin-1-yl]-2-oxo-1,2-dihydroquinoline-3-carbonitrile], the IC50 was determined as 38 nM.

In the case of `Cc1ccc2oc(C3CCN(c4c(C#N)c(=O)n(C)c5cc(OC6CCCOC6)ccc45)CC3)nc2c1` (centres unmarked) [Example 414, 1-methyl-4-[4-(5-methyl-1,3-benzoxazol-2-yl)piperidin-1-yl]-7-{[oxan-3-yl]oxy}-2-oxo-1,2-dihydroquinoline-3-carbonitrile], the IC50 came to 1.3 nM.

Take `Cn1c(=O)c(C(N)=O)c(N2CCC(c3ccc(OC(F)(F)F)cc3)CC2)c2ccccc21` [Example 108, 1-methyl-2-oxo-4-{4-[4-(trifluoromethoxy)phenyl]piperidin-1-yl}-1,2-dihydroquinoline-3-carboxamide]: the IC50 is 1.8 nM.

Take `Cc1ccc2c(c1)c(N1CCC(c3nc4cc(C(C)C)ccc4o3)CC1)c(C(N)=O)c(=O)n2C` [Example 200, 1,6-dimethyl-2-oxo-4-{4-[5-(propan-2-yl)-1,3-benzoxazol-2-yl]piperidin-1-yl}-1,2-dihydroquinoline-3-carboxamide]: the IC50 came out at 3.9 nM.

Turning to `COc1ccc2c(c1)c(N1CCC(c3nnc(-c4ccccc4)o3)CC1)c(C#N)c(=O)n2C` [Example 439, 6-methoxy-1-methyl-2-oxo-4-[4-(5-phenyl-1,3,4-oxadiazol-2-yl)piperidin-1-yl]-1,2-dihydroquinoline-3-carbonitrile], the IC50 turned out to be 492 nM.

As for `Cn1c(=O)c(C#N)c(N2CCC[C@H](c3ccccc3)CC2)c2cccc(F)c21` [Example 328, 8-fluoro-1-methyl-2-oxo-4-[(4S)-4-phenylazepan-1-yl]-1,2-dihydroquinoline-3-carbonitrile], the IC50 was found to be 144 nM.

In the case of `Cc1ccc2oc(C3(C)CCN(c4c(C#N)c(=O)n(C)c5cc(Br)ccc45)CC3)nc2c1` [Example 110, 7-bromo-1-methyl-4-[4-methyl-4-(5-methyl-1,3-benzoxazol-2-yl)piperidin-1-yl]-2-oxo-1,2-dihydroquinoline-3-carbonitrile], the IC50 turned out to be 2.6 nM.

In the case of `COc1cc2c(cc1Cl)c(N1CCC(c3nc4cc(C)ccc4o3)CC1)c(C#N)c(=O)n2C` [Example 566, 6-chloro-7-methoxy-1-methyl-4-[4-(5-methyl-1,3-benzoxazol-2-yl)piperidin-1-yl]-2-oxo-1,2-dihydroquinoline-3-carbonitrile], the IC50 came out at 0.3 nM.

Turning to `Cn1c(=O)c(C(N)=O)c(N2CCC(F)(c3nc4ccccc4o3)CC2)c2ccccc21` [Example 488, 4-[4-(1,3-benzoxazol-2-yl)-4-fluoropiperidin-1-yl]-1-methyl-2-oxo-1,2-dihydroquinoline-3-carboxamide], the IC50 came out at 1.6 nM.

Regarding `Cc1ccc2oc(C3CCN(c4c(C(N)=O)c(=O)n(C)c5ccc(C#N)cc45)CC3)nc2c1` [Example 498, 6-cyano-1-methyl-4-[4-(5-methyl-1,3-benzoxazol-2-yl)piperidin-1-yl]-2-oxo-1,2-dihydroquinoline-3-carboxamide], the IC50 amounted to 3.1 nM.

Regarding `Cc1ccc2oc([C@H]3CCN(c4c(C#N)c(=O)n(C)c5ccccc45)[C@@H](C)C3)nc2c1` [Example 234, 1-methyl-4-[(2S,4S)-2-methyl-4-(5-methyl-1,3-benzoxazol-2-yl)piperidin-1-yl]-2-oxo-1,2-dihydroquinoline-3-carbonitrile], the IC50 turned out to be 1.8 nM.

Regarding `Cc1ccc2oc(C3(C)CCN(c4c(C#N)c(=O)n(C)c5cc(F)ccc45)CC3)nc2c1` [Example 237, 7-fluoro-1-methyl-4-[4-methyl-4-(5-methyl-1,3-benzoxazol-2-yl)piperidin-1-yl]-2-oxo-1,2-dihydroquinoline-3-carbonitrile], the IC50 is 5 nM.

As to `Cn1c(=O)c(C#N)c(N2CCC(c3nc4ccc(C5CC5)cc4o3)CC2)c2ccccc21` [Example 395, 4-[4-(6-cyclopropyl-1,3-benzoxazol-2-yl)piperidin-1-yl]-1-methyl-2-oxo-1,2-dihydroquinoline-3-carbonitrile], the IC50 came out at 2.4 nM.

Take `Cc1ccc2oc(C3CCN(c4c(C#N)c(=O)n(C)c5ccc(OCC6CC6)cc45)CC3)nc2c1` [Example 408, 6-(cyclopropylmethoxy)-1-methyl-4-[4-(5-methyl-1,3-benzoxazol-2-yl)piperidin-1-yl]-2-oxo-1,2-dihydroquinoline-3-carbonitrile]: the IC50 turned out to be 15 nM.

Take `Cn1c(=O)c(C(N)=O)c(N2CCC(c3nc4cc(N5CCCC5=O)ccc4o3)CC2)c2ccccc21` [Example 450, 1-methyl-2-oxo-4-{4-[5-(2-oxopyrrolidin-1-yl)-1,3-benzoxazol-2-yl]piperidin-1-yl}-1,2-dihydroquinoline-3-carboxamide]: the IC50 is 119 nM.

For the compound `Cc1ccc2oc(C3CCN(c4c(C(N)=O)c(=O)n(C)c5cc(C)ccc45)CC3)nc2c1` [Example 313, 1,7-dimethyl-4-[4-(5-methyl-1,3-benzoxazol-2-yl)piperidin-1-yl]-2-oxo-1,2-dihydroquinoline-3-carboxamide], the IC50 amounted to 1.5 nM.

As to `Cn1c(=O)c(C#N)c(N2CCC(F)(c3nc4ccccc4o3)CC2)c2ccccc21` [Example 389, 4-[4-(1,3-benzoxazol-2-yl)-4-fluoropiperidin-1-yl]-1-methyl-2-oxo-1,2-dihydroquinoline-3-carbonitrile], the IC50 stood at 3.1 nM.

Consider `Cc1ccccc1-c1noc(C2CCN(c3c(C#N)c(=O)n(C)c4cc(O)c(Br)cc34)CC2)n1` [Example 531, 6-bromo-7-hydroxy-1-methyl-4-{4-[3-(2-methylphenyl)-1,2,4-oxadiazol-5-yl]piperidin-1-yl}-2-oxo-1,2-dihydroquinoline-3-carbonitrile], for which the IC50 was determined as 8.1 nM.

Regarding `Cn1c(=O)c(C#N)c(N2CCC(c3cccc4ccoc34)CC2)c2ccccc21` [Example 73], the IC50 was found to be 33 nM.

As for `Cn1c(=O)c(C#N)c(N2CCC(c3ccccc3)CC2)c2ccc(OC3CC3)cc21` [Example 264, 7-(cyclopropyloxy)-1-methyl-2-oxo-4-(4-phenylpiperidin-1-yl)-1,2-dihydroquinoline-3-carbonitrile], the IC50 is 49 nM.

Turning to `Cn1c(=O)c(C(N)=O)c(N2CCC(c3ccc4c(c3)CC(O)C4)CC2)c2ccccc21` (centres unmarked) [Example 467, 4-[4-(2-hydroxy-2,3-dihydro-1H-inden-5-yl)piperidin-1-yl]-1-methyl-2-oxo-1,2-dihydroquinoline-3-carboxamide], the IC50 turned out to be 3.9 nM.

Regarding `COc1ccc2c(c1)c(N1CCC(c3nc(-c4ccccc4C)no3)CC1)c(C(N)=O)c(=O)n2C` [Example 522, 6-methoxy-1-methyl-4-{4-[3-(2-methylphenyl)-1,2,4-oxadiazol-5-yl]piperidin-1-yl}-2-oxo-1,2-dihydroquinoline-3-carboxamide], the IC50 was determined as 44 nM.

Consider `Cn1c(=O)c(C#N)c(N2CCC(C)(c3nc4ccccc4o3)CC2)c2cccc(Br)c21` [Example 156, 4-[4-(1,3-benzoxazol-2-yl)-4-methylpiperidin-1-yl]-8-bromo-1-methyl-2-oxo-1,2-dihydroquinoline-3-carbonitrile], for which the concentration for half-maximal inhibition (IC50) turned out to be 182 nM.

For `Cc1ccc(-c2nnc(C3CCN(c4c(C(N)=O)c(=O)n(C)c5ccccc45)CC3)o2)cc1` [Example 462, 1-methyl-4-{4-[5-(4-methylphenyl)-1,3,4-oxadiazol-2-yl]piperidin-1-yl}-2-oxo-1,2-dihydroquinoline-3-carboxamide], the IC50 stood at 121 nM.
